“Also recorded” adds a separate entry of the source. Structures can show the parent of a compound that is named as a salt. Where two headings read alike, the source gives them in different places.
Legend:
[1] = cited from earlier work
[2] = system: TNF α-treated human dermal fibroblasts (HDF); test: PCR gene expression in TNF α-treated human dermal fibroblasts; assay type: cell-based; settings: 24 hours, TNF-alpha 10 ng/ml
3T3 = 3T3 Neutral Red Uptake Phototoxicity Assay; assay type: cell-based; settings: even at the maximum concentration required for testing (100 μg/ml)
Excerpt: The 3T3 Neutral Red Uptake Phototoxicity Assay was based on the OECD Guideline for Testing of Chemicals: […], with chlorpromazine and tazarotene as positive controls.

[3] = system: skin of healthy adult volunteers; test: Human repeat insult patch test (HRIPT); settings: IDMF 2% and 5% in butylene glycol/glycerin base
S. typhimurium TA1535 = settings: % of mutant colonies spontaneously occurring in water control
[4] = system: stratum granulosum (StGrm) coverage of mouse tail epidermis; test: Murine tail model of psoriasis; assay type: in vivo; settings: 2 weeks of application
Excerpt: The mouse tail test is a well-established animal model used for the development of FDA-approved anti-psoriasis drugs. Table 6 summarize the findings following 2 weeks of test material application on the tails, with the readout of improvement in stratum granulosum (StGrm) coverage +/− side effects.
The arrow in each photomicrograph points to the StGrm (stratum granulosum), which, as noted, is minimal in the control.

[5] = system: S. typhimurium (TA1535, TA1537); test: AMES genotoxicity testing, overall conclusion (TA1535, TA1537); settings: including at the highest concentration required for testing (5 mg/ml)
S. typhimurium TA1537 = settings: % of mutant colonies spontaneously occurring in water control
[6] = system: psoriasiform keratinocytes (epidermal keratinocyte progenitors incubated with IL-17A/IL-22/TNFα); test: DNA microarray gene expression in psoriasiform keratinocyte cultures; assay type: cell-based, human; settings: IDMF added after 24 h cytokine treatment, further 24 h
Method: Psoriasiform keratinocyte cultures were established by incubating epidermal keratinocyte progenitors from stratum basae (Zen-Bio, RTP, NC) with IL-17A/IL-22/TNFα ([…]) for 24 h. These cytokines have been reported to be key triggers in psoriasis (Y Tokura, T Mori, R Hino, Psoriasis and other Th17-mediated skin diseases. J UOEH, 32(4):317-328, 2010; A B Van Belle, M de Heusch, M M Lemaire, E Hendrickx, G Wamier, K Dunussi-Joannopoulos, L A Fouser, J C Renauld, L Dumoutier, IL-22 is required for imiquimod-induced psoriasiform skin inflammation in mice, J Immunol, 188(1):462-469, 2012; A Hänsel, C Günther, J Ingwersen, J Starke, M Schmitz, M Bachmann, M Meurer, E P Rieber, K Schäkel, Human slan (6-sulfo LacNAc) dendritic cells are inflammatory dermal dendritic cells in psoriasis and drive strong TH17/TH1 T-cell responses, J Allergy Clin Immunol, 127(3):787-794, 2011; Kim J, Krueger J G. The Immunopathogenesis of Psoriasis, Dermatol Clin, 33:13-23, 2015). […]
After 24 h of cytokine treatment, the IDMF test materials were added to cells and further incubation with IL-17A/IL-22/TNFα was pursued for another 24 h. At the end of the experiment total RNA was extracted from keratinocytes and quantified using DNA microarrays. […]

[7] = Lammintausta et al., Contact Dermatitis 2010; cited from earlier work
[8] = primary metabolite after oral administration of dimethyl fumarate; cited from earlier work
[9] = mouse tail, IDMF 2%, Tazorac 0.1% tazarotene

SMILES: COC(=O)/C=C/C(=O)OC [DMF, Dimethyl fumarate, reference compound]
- protein binding [1]: does not display protein binding
- NFKB expression ([2]; DMF 5 μg/ml): decreased

SMILES: COC(=O)/C=C/C(=O)OC1COC2C(OC(=O)/C=C/C(=O)OC)COC12 (centres unmarked) [IDMF, isosorbide di-(methylfumarate)]
- phototoxicity (3T3): not phototoxic
- conclusion of the HRIPT study [3]: non-sensitizing and non-irritating
- participants with score zero ([3]; 100 healthy adult volunteers): 100%
- skin sensitization/irritation score (scale 0-5) ([3]; 100 healthy adult volunteers): 0
- flushing ([3]; topical patch): no flushing was observed
- COX-2 expression ([2]; IDMF 1 μg/ml): −2.4 fold
- IL8 expression ([2]; IDMF 1 μg/ml): did not increase
- NFKB expression ([2]; IDMF 1 μg/ml): decreased
- % CTR (TA1535) (S. typhimurium TA1535; 8 μg/ml): 96 % CTR
- % CTR (TA1535) (S. typhimurium TA1535; 40 μg/ml): 89 % CTR
- % CTR (TA1535) (S. typhimurium TA1535; 200 μg/ml): 68 % CTR
- % CTR (TA1535) (S. typhimurium TA1535; 1 mg/ml): 64 % CTR
- % CTR (TA1535) (S. typhimurium TA1535; 5 mg/ml): 18 % CTR
- Tail observations: epidermal thickness ([4]; mouse tail, IDMF 2% in butylene glycol/glycerin, Tazorac 0.1% tazarotene, control 3-4 layers): thickness (4-5 layers),
- Tail observations: granular layer (StGrm) [4, 9]: significant extension of StGrm coverage; also recorded: extended granular layer
- Tail observations: inflammatory (leukocyte) infiltrate [4, 9]: no inflammation; also recorded: no inflammatory infiltrate,
- Tail observations: stratum corneum (StCr) [4, 9]: normal basketwave StCr,
- StGrm expansion ([4]; mouse tail, control (no treatment) = 100, IDMF 2% in butylene glycol/glycerin, Tazorac 0.1% tazarotene, p < 0.0001): 134 (p < 0.0001)
- genotoxicity (AMES) [5]: not genotoxic
- % CTR (TA1537) (S. typhimurium TA1537; 8 μg/ml): 83 % CTR
- % CTR (TA1537) (S. typhimurium TA1537; 40 μg/ml): 117 % CTR
- % CTR (TA1537) (S. typhimurium TA1537; 200 μg/ml): 91 % CTR
- % CTR (TA1537) (S. typhimurium TA1537; 1 mg/ml): 30 % CTR
- % CTR (TA1537) (S. typhimurium TA1537; 5 mg/ml): 13 % CTR
- TNFα/IFNγ/IL-17 responses (DNA microarray) [6]: significant inhibition
- antioxidant pathways, especially those related to glutathione (DNA microarray) [6]: upregulated

SMILES: COC(=O)/C=C/C(=O)O [MMF, monomethyl fumarate]
- skin sensitization [7]: known skin sensitizers
- protein binding (bound) [1]: approximately 50%
- half-life [8]: 36 h

SMILES: CCOC(=O)c1ccc(C#Cc2ccc3c(c2)C(C)(C)CCS3)nc1 [tazarotene, reference compound]
- adverse effects in mouse tail test ([4]; positive control): substantial hyperkeratosis, spongiosis and wide-spread inflammation

Source: patent USRE50049E1, “Compositions and methods for treating psoriasis” (SYMBIONYX PHARMACEUTICALS INC, priority 2015, dated 2024)
